Results: ChEMBL document CHEMBL6109153, “Development of Membrane-Targeting Osthole Derivatives Containing Pyridinium Quaternary Ammonium Moieties with Potent Anti-Methicillin-Resistant Staphylococcus aureus Properties” (J Med Chem, 2025)
Calls of active or inactive are those of the source. The rule behind the calls is not given here.

Assays:
Staphylococcus aureus [1] = assay: Induction of ROS production in methicillin-resistant Staphylococcus aureus M11 assessed as fold increase at 32 ug/ml incubated for 1 hr by DCFH-DA probe based analysis relative to control; format: functional; settings: dose 32 µg/ml
Staphylococcus aureus [2] = assay: Antibacterial activity against methicillin-resistant Staphylococcus aureus M11 infected in BALB/c mouse model of Sepsis assessed as reduction in TNF-alpha level measured after 24 hrs; format: functional, organism-based; settings: dose 4-8 mg/kg
Staphylococcus aureus [3] = assay: Antibacterial activity against methicillin-resistant Staphylococcus aureus M11 infected in BALB/c mouse model of Sepsis assessed as reduction in bacterial count in skin tissues at 4 mg/kg measured after 24 hrs relative to control; format: functional; parameters: scale not given: the % may be the effect or the level left
Staphylococcus aureus [4] = assay: Antibacterial activity against methicillin-resistant Staphylococcus aureus M11 incubated for 16 to 20 hrs by broth microdilution method; format: functional; settings: time 16-20 hrs
Staphylococcus aureus [5] = assay: Antibacterial activity against methicillin-resistant Staphylococcus aureus M11 infected in BALB/c mouse model of Sepsis assessed as reduction in abscess size on back at 4 mg/kg measured after 24 hrs; format: functional, organism-based
Staphylococcus aureus [6] = assay: Antibacterial activity against methicillin-resistant Staphylococcus aureus M16 incubated for 16 to 20 hrs by broth microdilution method; format: functional; settings: time 16-20 hrs
Staphylococcus aureus [7] = assay: Antibacterial activity against methicillin-resistant Staphylococcus aureus M11 up to 128 ug/ml in presence of 128 ug/ml peptidoglycan incubated for 16 to 18 hrs; format: functional; settings: dose <= 128 µg/ml, time 16-18 hrs
Staphylococcus aureus [8] = assay: Antibacterial activity against methicillin-resistant Staphylococcus aureus M22 incubated for 16 to 20 hrs by broth microdilution method; format: functional; settings: time 16-20 hrs
Staphylococcus aureus [9] = assay: Antibacterial activity against methicillin-resistant Staphylococcus aureus M11 infected in BALB/c mouse model of Sepsis assessed as reduction in IL-6 level measured after 24 hrs; format: functional, organism-based; settings: dose 4-8 mg/kg
Staphylococcus aureus [10] = assay: Antibacterial activity against methicillin-resistant Staphylococcus aureus M11 infected in BALB/c mouse model of Sepsis assessed as reduction in bacterial load in skin tissues at 4 mg/kg measured after 24 hrs; format: functional
[11] = Toxicity in BALB/c mouse assessed as adverse reactions at 5 to 40 mg/kg, ip measured for 7 days; format: organism-based; settings: in vivo, 168 h, dose 5-40 mg/kg, time 7 day
[12] = Toxicity in BALB/c mouse assessed as glossy fur at 5 to 40 mg/kg, ip measured for 7 days; format: organism-based; settings: in vivo, 168 h, dose 5-40 mg/kg, time 7 day
Staphylococcus aureus [13] = assay: Antibacterial activity against methicillin-resistant Staphylococcus aureus M13 incubated for 16 to 20 hrs by broth microdilution method; format: functional; settings: time 16-20 hrs
Staphylococcus aureus [14] = assay: Antibacterial activity against methicillin-resistant Staphylococcus aureus M11 infected in BALB/c mouse model of Sepsis assessed as smooth in inner epidermis at 8 mg/kg measured after 24 hrs; format: functional, organism-based
Staphylococcus aureus [15] = assay: Induction of bacterial eradication in methicillin-resistant Staphylococcus aureus M11 at 8 times MIC incubated for 4 hrs by time-kill assay; format: functional, organism-based
Staphylococcus aureus [16] = assay: Antibacterial activity against methicillin-resistant Staphylococcus aureus M11 infected in BALB/c mouse model of Sepsis assessed as restoration of smoothness in outer skin at 8 mg/kg measured after 24 hrs; format: functional, organism-based
Staphylococcus aureus [17] = assay: Disruption of cell membrane in methicillin-resistant Staphylococcus aureus M11 assessed as shrinkage in cell membrane at 4 ug/ml incubated for 4 hrs by SEM analysis; format: functional, organism-based; settings: dose 4.0 µg/ml
Staphylococcus aureus [18] = assay: Antibacterial activity against methicillin-resistant Staphylococcus aureus M11 upto 128 ug/ml in presence of phosphatidylethanolamine incubated for 16 to 18 hrs; format: functional, organism-based; settings: dose <= 128.0 µg/ml, time 16-18 hrs
Staphylococcus aureus [19] = assay: Antibacterial activity against methicillin-resistant Staphylococcus aureus M11 infected in BALB/c mouse model of Sepsis assessed as reduction in inflammatory cell infiltration in skin tissues at 4 to 8 mg/kg measured after 24 hrs by H and E staining based analysis; format: functional, organism-based; settings: dose 4-8 mg/kg
Staphylococcus aureus [20] = assay: Antibacterial activity against methicillin-resistant Staphylococcus aureus M20 incubated for 16 to 20 hrs by broth microdilution method; format: functional; settings: time 16-20 hrs
[21] = Toxicity in KM mouse assessed as adverse reactions at <=20 mg/kg, sc; format: organism-based; settings: in vivo
[22] = Toxicity in BALB/c mouse model of Sepsis infected with methicillin-resistant Staphylococcus aureus M11 assessed as pathological change in heart at 4 to 8 mg/kg measured after 24 hrs by H and E staining based analysis; format: organism-based; settings: in vivo, dose 4-8 mg/kg
Staphylococcus aureus [23] = assay: Disruption of cell membrane in methicillin-resistant Staphylococcus aureus M11 assessed as fold increase in DNA leakage at 4 ug/ml incubated for 4 hrs by micro-spectrophotometric analysis relative to control; format: functional; settings: dose 4 µg/ml
[24] = Toxicity in KM mouse assessed as animal death at 40 mg/kg, sc; format: organism-based; settings: in vivo
Staphylococcus aureus [25] = assay: Induction of resistance development in Staphylococcus aureus ATCC 29213 at 0.5 times MIC measured after 20 passages by broth microdilution method; format: functional, organism-based
[26] = Toxicity in BALB/c mouse model of Sepsis infected with methicillin-resistant Staphylococcus aureus M11 assessed as pathological change in kidney at 4 to 8 mg/kg measured after 24 hrs by H and E staining based analysis; format: organism-based; settings: in vivo, dose 4-8 mg/kg
[27] = Cytotoxicity against human L02 cells assessed as cell survival rate at 32 times MIC incubated for 24 hrs by CCK8 assay; format: toxicity, cell-based; settings: read-out: Survival
Staphylococcus aureus [28] = assay: Induction of cell permeability in methicillin-resistant Staphylococcus aureus M11 assessed as increase in fluorescence intensity by SYTOX Green dye based analysis; format: functional, organism-based
[29] = Toxicity in KM mouse assessed as erythema on dorsal skin at 40 mg/kg, sc; format: organism-based; settings: in vivo
[30] = Toxicity in BALB/c mouse model of Sepsis infected with methicillin-resistant Staphylococcus aureus M11 assessed as survival rate at 10 mg/kg, ip measured after 7 days; format: organism-based; settings: in vivo, 168 h, time 7 day
Staphylococcus aureus [31] = assay: Antibacterial activity against methicillin-resistant Staphylococcus aureus M11 infected in BALB/c mouse model of Sepsis assessed as vacuolar degeneration in renal epithelial cells at 10 mg/kg, ip measured after 48 hrs; format: functional, organism-based
[32] = Toxicity in KM mouse assessed as abnormality in kidney at 30 mg/kg, sc by H and E staining based analysis; format: organism-based; settings: in vivo
Staphylococcus aureus [33] = assay: Antibacterial activity against methicillin-resistant Staphylococcus aureus M11 infected in BALB/c mouse model of Sepsis assessed as reduction in bacterial load in liver at 20 mg/kg, ip measured after 48 hrs; format: functional
[34] = Toxicity in BALB/c mouse assessed as change in serum biochemical parameters at 30 mg/kg, ip measured for 7 days; format: organism-based; settings: in vivo, 168 h, time 7 day
Staphylococcus aureus [35] = assay: Antibacterial activity against methicillin-resistant Staphylococcus aureus M11 infected in BALB/c mouse model of Sepsis assessed as reduction in bacterial load in kidney at 10 mg/kg, ip measured after 48 hrs; format: functional
[36] = Binding affinity to phosphatidylglycerol assessed as association constant by ITC analysis
Staphylococcus aureus [37] = assay: Antibacterial activity against methicillin-resistant Staphylococcus aureus M11 infected in BALB/c mouse model of Sepsis assessed as reduction in serum TNF-alpha level administered intraperitoneally measured after 48 hrs; format: functional, organism-based; settings: dose 10-20 mg/kg, route ip
[38] = Toxicity in KM mouse assessed as abnormality in lung at 30 mg/kg, sc by H and E staining based analysis; format: organism-based; settings: in vivo

| Structure (SMILES) | fold change (FC) (Staphylococcus aureus [1]) | Activity (Staphylococcus aureus [2]) | Activity (Staphylococcus aureus [3]) [%] | MIC (Staphylococcus aureus [4]) [µg/mL] | Activity (Staphylococcus aureus [5]) | MIC (Staphylococcus aureus [6]) [µg/mL] | MIC (Staphylococcus aureus [7]) [µg/mL] | MIC (Staphylococcus aureus [8]) [µg/mL] | Activity (Staphylococcus aureus [9]) | Activity (Staphylococcus aureus [10]) [log10CFU/g] | Activity [11] | Activity [12] | MIC (Staphylococcus aureus [13]) [µg/mL] | Activity (Staphylococcus aureus [14]) | Activity (Staphylococcus aureus [15]) | Activity (Staphylococcus aureus [16]) | Activity (Staphylococcus aureus [17]) | Activity (Staphylococcus aureus [18]) | Activity (Staphylococcus aureus [19]) | MIC (Staphylococcus aureus [20]) [µg/mL] | also measured |
| --- | --- | --- | --- | --- | --- | --- | --- | --- | --- | --- | --- | --- | --- | --- | --- | --- | --- | --- | --- | --- | --- |
| CCCCCNC(=O)C[n+]1ccc(SCCCCCOc2ccc3ccc(=O)oc3c2CC=C(C)C)cc1.[Br-] | 1.8 | Dose-dependent-effect; Compound Has Slightly Greater Efficacy Than Vancomycin | 98.702 | 0.5 | Active | 0.5 | 16 | 0.5 | Dose-dependent-effect; Compound Has Slightly Greater Efficacy Than Vancomycin | 1.882 | Non-toxic | Non-toxic | 1 | Active | Active | Active | Active | Active; Compound Showed Only Minor Or No Change In Mic | Active | 0.5 | Activity [21]: Non-toxic; Activity [22]: Non-toxic; fold change (FC) (Staphylococcus aureus [23]): ~2; Activity [24]: Non-toxic; Activity (Staphylococcus aureus [25]): inactive; Activity [26]: Non-toxic; viability at 24 h, 32 times MIC [27]: > 80%; Activity (Staphylococcus aureus [28]): Dose-dependent-effect |
| CC(C)=CCc1c(OCCCCSc2cc[n+](CC(=O)N(CC(C)C)CC(C)C)cc2)ccc2ccc(=O)oc12.[Br-] | 2 | Dose-dependent-effect; Compound Has Slightly Greater Efficacy Than Vancomycin | 98.886 | 0.5 | Active | 0.5 | 16 | 0.5 | Dose-dependent-effect; Compound Has Slightly Greater Efficacy Than Vancomycin | 1.948 | Non-toxic | Non-toxic | 1 | Active | Active | Active | Active | Active; Compound Showed Only Minor Or No Change In Mic | Active | 0.5 | Activity [29]: Toxic; Survival [30]: 44.4%; Activity (Staphylococcus aureus [31]): inactive; Activity [32]: Non-toxic; Activity (Staphylococcus aureus [33]): 3.81 log10CFU/ml; Activity [34]: Non-toxic; Activity (Staphylococcus aureus [35]): 1.81 log10CFU/ml; Ka [36]: 3.53 10^4/M; Activity (Staphylococcus aureus [37]): Dose-dependent-effect; Activity [22]: Non-toxic; fold change (FC) (Staphylococcus aureus [23]): ~2; Activity [24]: Non-toxic; Activity (Staphylococcus aureus [25]): inactive; Activity [26]: Non-toxic; viability at 24 h, 32 times MIC [27]: > 80%; Activity (Staphylococcus aureus [28]): Dose-dependent-effect; Activity [38]: Non-toxic |
